Test results: the supplement of paper PMC6045584
± gives the standard deviation of the averaged measurements.

Key:
NILOTINIB = compound: Cc1cn(-c2cc(NC(=O)c3ccc(C)c(Nc4nccc(-c5cccnc5)n4)c3)cc(C(F)(F)F)c2)cn1 [NILOTINIB]; assay: surviving fraction relative to DMSO-only wells; higher = less growth inhibition; details: exposure time: 5 days
Summary of the method: (§1)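 Log-phase tumour cell lines, 250–500 cells per well in 384-well plates, received inhibitors at 0.5, 1, 5, 10, 50, 100, 500 and 1000 nM continuously for five days, starting 24 hours after seeding. Viability was quantified with CellTiter-Glo luminescence and normalised to the median of DMSO-only wells to give surviving fraction. Three screens were run per line, and a line stayed in only with replicate Pearson r >0.7 and median Z' >0.3.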

VORINOSTAT = compound: O=C(CCCCCCC(=O)Nc1ccccc1)NO [VORINOSTAT]; assay: as above; details: exposure time: 5 days
Summary of the method: as §1

Test System	surviving fraction (NILOTINIB; 0.5 nM)	surviving fraction (NILOTINIB; 1 nM)	surviving fraction (NILOTINIB; 5 nM)	surviving fraction (NILOTINIB; 10 nM)	surviving fraction (NILOTINIB; 50 nM)	surviving fraction (NILOTINIB; 100 nM)	surviving fraction (NILOTINIB; 500 nM)	surviving fraction (NILOTINIB; 1000 nM)	surviving fraction (VORINOSTAT; 0.5 nM)	surviving fraction (VORINOSTAT; 1 nM)	surviving fraction (VORINOSTAT; 5 nM)	surviving fraction (VORINOSTAT; 10 nM)	surviving fraction (VORINOSTAT; 50 nM)	surviving fraction (VORINOSTAT; 100 nM)	surviving fraction (VORINOSTAT; 500 nM)	surviving fraction (VORINOSTAT; 1000 nM)
SUM149 BREAST	0.884 ± 0.092	0.895 ± 0.024	0.971 ± 0.057	0.833 ± 0.072	0.898 ± 0.053	0.786 ± 0.061	0.872 ± 0.071	0.833 ± 0.053	1.1 ± 0.12	1.03 ± 0.044	1.08 ± 0.047	0.917 ± 0.038	1.06 ± 0.045	1.14 ± 0.016	0.996 ± 0.066	0.71 ± 0.031
SUM149.B1*.S BREAST	1.09 ± 0.026	1.08 ± 0.051	1.163 ± 0.0038	1.12 ± 0.031	1.1 ± 0.046	1.13 ± 0.018	1.18 ± 0.035	1.11 ± 0.036	1.05 ± 0.026	0.971 ± 0.049	1.02 ± 0.047	0.845 ± 0.031	1.06 ± 0.038	1.05 ± 0.052	0.82 ± 0.038	0.523 ± 0.034
SUM159 BREAST	1.1 ± 0.039	1.1 ± 0.021	1.11 ± 0.021	1.09 ± 0.032	1.06 ± 0.023	1.077 ± 0.0068	1.055 ± 0.0095	1.06 ± 0.016	0.975 ± 0.087	0.932 ± 0.16	0.929 ± 0.16	0.928 ± 0.15	0.923 ± 0.24	0.882 ± 0.28	0.926 ± 0.17	0.77 ± 0.29
SYO1 SYNOVIAL	0.9541 ± 0.0069	0.979 ± 0.064	0.97 ± 0.062	0.974 ± 0.036	0.936 ± 0.036	0.976 ± 0.056	0.805 ± 0.062	0.743 ± 0.032	0.942 ± 0.068	0.895 ± 0.083	0.945 ± 0.055	0.836 ± 0.025	1.03 ± 0.088	1.057 ± 0.0096	0.563 ± 0.022	0.222 ± 0.012
T47D BREAST	1.02 ± 0.041	1.065 ± 0.0097	1.07 ± 0.025	1.04 ± 0.045	1.07 ± 0.051	1.06 ± 0.026	1.05 ± 0.041	1.08 ± 0.038	0.967 ± 0.026	1.01 ± 0.02	1.02 ± 0.042	1.013 ± 0.006	1.08 ± 0.057	1.05 ± 0.043	0.785 ± 0.02	0.449 ± 0.028
U2OS BONE	1.03 ± 0.032	1.02 ± 0.037	1.11 ± 0.032	1.11 ± 0.06	1.07 ± 0.059	1.13 ± 0.088	1.11 ± 0.095	1.09 ± 0.095	0.934 ± 0.013	1.03 ± 0.015	0.995 ± 0.026	1.01 ± 0.02	1.01 ± 0.016	1.04 ± 0.04	0.909 ± 0.047	0.751 ± 0.051
VCAP PROSTATE	0.999 ± 0.1	1.03 ± 0.088	1.16 ± 0.13	1.06 ± 0.076	1.02 ± 0.075	0.966 ± 0.073	0.952 ± 0.14	0.862 ± 0.067	1.09 ± 0.082	1.12 ± 0.054	1.15 ± 0.015	1.17 ± 0.11	1.16 ± 0.11	0.994 ± 0.022	0.449 ± 0.017	0.261 ± 0.04
VP229 BREAST	1.24 ± 0.14	1.12 ± 0.11	1.04 ± 0.075	1.18 ± 0.24	1.05 ± 0.041	1.08 ± 0.094	1.28 ± 0.04	1.12 ± 0.059	0.931 ± 0.099	1.04 ± 0.054	1.02 ± 0.11	0.924 ± 0.033	1.1 ± 0.086	1.04 ± 0.022	0.6 ± 0.11	0.352 ± 0.058
YAMATO SYNOVIAL	1.18 ± 0.14	1.22 ± 0.016	1.28 ± 0.064	1.26 ± 0.1	1 ± 0.05	0.94 ± 0.096	0.771 ± 0.024	0.658 ± 0.031	1.31 ± 0.099	0.905 ± 0.031	1.19 ± 0.027	0.742 ± 0.072	1.28 ± 0.068	1.16 ± 0.016	0.82 ± 0.026	0.533 ± 0.038
ZR751 BREAST	1.05 ± 0.13	1.01 ± 0.11	1.069 ± 0.0042	1.03 ± 0.14	0.895 ± 0.03	0.834 ± 0.14	0.826 ± 0.058	0.66 ± 0.073	1.22 ± 0.18	1.23 ± 0.18	1.16 ± 0.12	1.08 ± 0.2	1.37 ± 0.13	1.4 ± 0.19	1.23 ± 0.16	1.04 ± 0.17
